We go through 13 compounds from BindingDB's records for doi:10.1016/j.bmcl.2005.05.101 (Glaxosmithkline, 2005).

Test [1] has as its target T1, Dimer of Gag-Pol polyprotein [501-599,Q508K,L534I,L564I,C568A,C596A] (Human immunodeficiency virus 1, UniProt P03367, C568A/C596A/L534I/L564I/Q508K).
T1 construct: 501-599
As to the kind of experiment: Protease Inhibition Assay. The procedure: The Ki values were determined using fluorogenic substrate, 2-(aminobenzoyl)-Thr-Ile-Nle-Phe(p-NO2)-Gln-ArgNH2. A standard curve relating changes in fluorescent intensity to changes in concentration of product was used to convert fluorescent changes into molar velocities. The amount of cleavage was determined by HPLC.

Test [2] deals with T1, Dimer of Gag-Pol polyprotein [501-599,Q508K,L534I,L564I,C568A,C596A]. Kind of test: Protease Inhibition Assay. To be noted: pH 6.8; 25 °C.

Take `O=C(N[C@@H](Cc1ccccc1)[C@H](O)CN(OC1CCCCC1)S(=O)(=O)c1ccc2c(c1)OCO2)O[C@H]1CO[C@H]2OCC[C@H]21` [(3R,3aS,6aR)-hexahydrofuro[2,3-b]furan-3-yl N-[(2S,3R)-4-[2H-1,3-benzodioxole-5-(cyclohexyloxy)sulfonamido]-3-hydroxy-1-phenylbutan-2-yl]carbamate]: in test [1], the Ki was under 5 pM.
For the compound `O=C(N[C@@H](Cc1ccccc1)[C@H](O)CN(OC1CCCC1)S(=O)(=O)c1ccc2c(c1)OCO2)O[C@H]1CO[C@H]2OCC[C@H]21` [(3R,3aS,6aR)-hexahydrofuro[2,3-b]furan-3-yl N-[(2S,3R)-4-[2H-1,3-benzodioxole-5-(cyclopentyloxy)sulfonamido]-3-hydroxy-1-phenylbutan-2-yl]carbamate], in test [1], the Ki is under 5 pM.
The same measure, in the same setting: the value for `Nc1cccc(S(=O)(=O)N(C[C@@H](O)[C@H](Cc2ccccc2)NC(=O)O[C@H]2CO[C@H]3OCC[C@H]32)OC2CCCC2)c1` [(3R,3aS,6aR)-hexahydrofuro[2,3-b]furan-3-yl N-[(2S,3R)-4-[(3-aminobenzene)(cyclopentyloxy)sulfonamido]-3-hydroxy-1-phenylbutan-2-yl]carbamate] was under 5 pM.
The same measure, in the same setting: the value for `Nc1ccc(S(=O)(=O)N(C[C@@H](O)[C@H](Cc2ccccc2)NC(=O)O[C@H]2CO[C@H]3OCC[C@H]32)OC2CCCC2)cc1` [(3R,3aS,6aR)-hexahydrofuro[2,3-b]furan-3-yl N-[(2S,3R)-4-[(4-aminobenzene)(cyclopentyloxy)sulfonamido]-3-hydroxy-1-phenylbutan-2-yl]carbamate] was under 5 pM.
Same read-out and setting: the value for `O=C(N[C@@H](Cc1ccccc1)[C@H](O)CN(OC1CCCCC1)S(=O)(=O)c1ccc2c(c1)OCCO2)O[C@H]1CO[C@H]2OCC[C@H]21` [(3R,3aS,6aR)-hexahydrofuro[2,3-b]furan-3-yl N-[(2S,3R)-4-[(cyclohexyloxy)(2,3-dihydro-1,4-benzodioxine-6-)sulfonamido]-3-hydroxy-1-phenylbutan-2-yl]carbamate] was under 5 pM.
Turning to `O=C(N[C@@H](Cc1ccccc1)[C@H](O)CN(OC1CCCCC1)S(=O)(=O)c1ccc(O)cc1)O[C@H]1CO[C@H]2OCC[C@H]21` [(3R,3aS,6aR)-hexahydrofuro[2,3-b]furan-3-yl N-[(2S,3R)-4-[(cyclohexyloxy)(4-hydroxybenzene)sulfonamido]-3-hydroxy-1-phenylbutan-2-yl]carbamate], the Ki in test [1] is under 5 pM.
In the case of `COc1ccc(S(=O)(=O)N(C[C@@H](O)[C@H](Cc2ccccc2)NC(=O)O[C@H]2CCOC2)OC2CCCC2)cc1` [(3S)-oxolan-3-yl N-[(2S,3R)-4-[(cyclopentyloxy)(4-methoxybenzene)sulfonamido]-3-hydroxy-1-phenylbutan-2-yl]carbamate], the IC50 in test [2] is 738000 pM. In addition, the Ki in test [1] (pH 6.8, 25 °C) stood at 190 pM.
Compound `COc1ccc(S(=O)(=O)N(C[C@@H](O)[C@H](Cc2ccccc2)NC(=O)[C@@H](NC(=O)c2ccc3ccccc3n2)C(N)=O)OC2CCCC2)cc1` [N-alkoxysulfonamide analog entry j] had an IC50 in test [2] of 24000 pM. In test [1] (pH 6.8, 25 °C), this compound displayed a Ki of under 5 pM.
In the same order, the values of `COc1ccc(S(=O)(=O)N(C[C@@H](O)[C@H](Cc2ccccc2)NC(=O)O[C@H]2CO[C@H]3OCC[C@H]32)OC2CCCC2)cc1` [N-alkoxysulfonamide analog entry k] are 6000 pM and under 5 pM.
Consider `O=C(N[C@@H](Cc1ccccc1)[C@H](O)CN(OC1CCCC1)S(=O)(=O)c1ccc(O)cc1)O[C@H]1CO[C@H]2OCC[C@H]21` [N-alkoxysulfonamide analog entry n], for which the Ki in test [1] is under 5 pM.
On the same count and under the same terms, under `O=C(N[C@@H](Cc1ccccc1)[C@H](O)CN(OC1CCCC1)S(=O)(=O)c1ccc2c(c1)OCCO2)O[C@H]1CO[C@H]2OCC[C@H]21` [N-alkoxysulfonamide analog entry p] stands under 5 pM; under `COc1ccc(S(=O)(=O)N(C[C@@H](O)[C@H](Cc2ccccc2)NC(=O)O[C@H]2CO[C@H]3OCC[C@H]32)OC2CCCCC2)cc1` [N-alkoxysulfonamide analog entry q], under 5 pM.
Regarding `COC(=O)N[C@H](C(=O)N[C@@H](Cc1ccccc1)[C@H](O)CN(OC1CCCC1)S(=O)(=O)c1ccc(OC)cc1)C(C)(C)C` [methyl N-[(1S)-1-{[(2S,3R)-4-[(cyclopentyloxy)(4-methoxybenzene)sulfonamido]-3-hydroxy-1-phenylbutan-2-yl]carbamoyl}-2,2-dimethylpropyl]carbamate], 203000 pM corresponded to half-maximal inhibition in test [2] (IC50).
